l = locked nucleic acid (LNA); [5mC] = 5-methylcytosine; d = 2'-deoxy (DNA)
Key:
[1] = system: 3′-ACGACCAC-5′ / 3′-ACGGCCAC-5′; assay: Tm of LNA:DNA and DNA:DNA 8-mer duplexes, perfect match and single mismatch; type: binding; conditions: for ΔTm: perfect match minus single mismatch; for Tm of LNA:DNA Duplexes, Perfect match: target 3′-ACGACCAC-5′; for Tm of LNA:DNA Duplexes, Single mismatch: target 3′-ACGGCCAC-5′
From the text: It is often difficult to design probes and primers with the same range of melting temperature due to the variance in A/T and G/C content of the probing sites. Highly A/T rich regions typically give lower Tm values. Furthermore, if single mismatches are to be resolved, G/T mismatches are known to contribute little to ΔTm. As discussed above, the use of LNA is a desirable way to solve problems related to multiplex use of primers and probes. LNA offers the possibility to adjust Tm and increase the ΔTm at the same time. LNA increases Tm with 4-8° C./substitution and increases ΔTm in many cases (Table 9).

[2] = system: DNA target 3′-d(CACTYTACG); conditions: data reported earlier; cited from earlier work
[3] = system: C. elegans genes relevant for general stress response and metabolism of toxic compounds; assay: Expression profiling on C. elegans LNA tox oligoarray, beta-naphthoflavone and primaquine; type: in vivo, Caenorhabditis elegans; conditions: cRNA target; 24 hours
Method: For all cultures the sample is divided into two, and one half of the sample is used as the control, the other as the treated sample. Worm samples are harvested and sucrose cleaned by standard methods. For heat shock treatment: the heat shock sample is added to S-media preheated to 33° C. in a 1 L flask suspended in a water bath at 33° C., the other sample is added to a 1 L flask with S-media at 25° C. Both samples are shaken at approximately 100 rpm. for an hour. For β-naphthoflavone and primaquine treatment: 0.5 mL of 5 mg/mL β-naphthoflavone in DMSO or 0.5 mL of 20 mg/mL primaquine in DMSO were added to each 500 mL volume of S-media culture after 28 hours of growth from L1. At the same time 0.5 mL of DMSO was added to the control. Incubation was for 24 hours. Samples are then harvested by centrifugation at 3000×g suspended in RNALater™ (Ambion) and immediately frozen in liquid nitrogen.
First and second strand cDNA syntheses were made using the MessageAmp™ aRNA Kit (Ambion) according to suppliers' instructions. Five microgram of C. elegans total RNA was used as template for cDNA syntheses. Syntheses of fluorescent cRNA were made according to the MessageAmp™ aRNA Kit (Ambion) protocol with minor modifications. Cy3™-UTP or Cy5™-UTP (6 μl of a 5 mM solution Amersham Biosciences, USA) replaced biotin-CTP. The final concentration of ATP, CTP, and GTP was 7.5 mM whereas the concentration of UTP was reduced to 4.9 mM.
The arrays were hybridized overnight using the following protocol. The Cy3™ and Cy5™-labelled cDNA or cRNA samples were combined in one tube followed by addition of 3 μL 20×SSC (3×SSC final), 0.5 μL 1 M HEPES, pH 7.0 (25 mM final), 25 μg yeast tRNA (1.25 μg/μL final), 0.6 μL 10% SDS (0.3% final), and DEPC-treated water to 20 μL final volume. The labelled cDNA target sample was filtered in a Millipore 0.22 micron spin column according to the manufacturer's instructions (Millipore, USA), and the probe was denatured by incubating the reaction at 100° C. for 2 min. The sample was cooled at 20-25° C. for 5 min. by spinning at max speed in a microcentrifuge. A LifterSlip (Erie Scientific Company, USA) was carefully placed on top of the microarray spotted on Immobilizer™ MicroArray Slide and the hybridization mixture was applied to the array from the side. An aliquot of 30 μL of 3×SSC was added to both ends of the hybridization chamber, and the Immobilizer™ MicroArray Slide was placed in the hybridization chamber. The chamber was sealed watertight and incubated at 65° C. for 16-18 hours submerged in a water bath. After hybridisation, the slide was removed carefully from the hybridization chamber and washed using the following protocol. The Lifterslip coverslip was washed off in 2×SSC, pH 7.0 containing 0.1% SDS at room temperature for 1 min., followed by washing of the microarrays subsequently in 1.0×SSC, pH 7.0 at room temperature for 1 min, and then in 0.2×SSC, pH 7.0 at room temperature for 1 min. Finally the slides were washed for 5 seconds in 0.05×SSC, pH 7.0. The slides were then dried by centrifugation in a swinging bucket rotor at approximately 200 G for 2 min. The slide is now ready for scanning.
Following washing and drying, the slides were scanned using a ScanArray 4000XL scanner (Perkin-Elmer Life Sciences, USA), and the array data were processed using the GenePix™ Pro 4.0 software package (Axon, USA). The data in each image was normalized so that the ratio of means of all of the features is equal to 1.

human satellite-2 repeat = assay: FISH on metaphase chromosomes with satellite-2 LNA/DNA mixmers; type: binding; conditions: for FISH signals on chromosomes: 6.4 pmoles Cy3 labeled probe, 30 minutes at 37° C., simultaneous denaturation at 75° C. for 5 minutes; for FISH signals without a denaturation step: overnight hybridization
Method: Chromosome preparations were made by standard methods from peripheral lymphocyte cultures of normal males. Slides were prepared 1-4 days prior to an experiment and treated with RNAse (10 μg/μl) at 37° C. for one hour before hybridization. The 23 bp human satellite-2 repeat sequence, [NT], was used to prepare the […] different content and sequence order of LNA modifications (Table 19). All […] labeled in the 5' end with either Cy3 or biotin. Biotin amidite was purchased from Applied Biosystems and Cy3 amidite was purchased from Amersham Bioscience. […] FISH was carried out as described by […], Guven […], Turner Z. (1998) Not para-, not peri-, but centric inversion of chromosome 12. […] (1); with the following modifications including: […] In addition the effect of denaturation was also tested. Two alternative hybridization mixtures were used: 50% formamide/2×SSC (pH 7.0)/10% dextran sulphate or 2×SSC (pH 7.0)/10% dextran sulphate. Hybridization times included 30 min, 1 hr, 2 hrs, 3 hrs and overnight. Hybridization temperatures included: 37° C., 55° C., 60° C. and 72° C. Post washing was either as for standard FISH (1), or with 50% formamide/2×SSC at 60° C., or without formamide. Hybridization signals with biotin labeled LNA substituted oligonucleotide probes were visualized indirectly using two layers of fluorescein-labeled avidin (Vector Labs) linked by a biotinylated anti-avidin molecule, which amplified the signal 8-64 times. The hybridization of Cy3 labeled molecules however, was visualized directly after a short washing procedure. […] The whole procedure was carried out in the dark. The signals were visualized using a Leica DMRB epifluorescence microscope equipped with a SenSys charge-coupled device camera (Photometrics, Tucson, Ariz.), and IPLAB Spectrum Quips FISH software (Applied Imaging international Ltd, Newcastle, UK) within two days after hybridization.

[4] = system: DNA oligonucleotides (HNFas128A-2, Gluc53as-A); assay: Mismatch discrimination of chimeric LNA-DNA 12-mers containing LNA-A or LNA-D; type: binding
[5] = system: splice variant #1 and #2 transcripts spiked into C. elegans total RNA; assay: Splice variant ratio detection with merged LNA block capture probes (Example 9); type: binding; conditions: signal ratio KU007/KU008, Cy5, normalized

5′-TGCTGGTG-3′ [DNA 8-mer, reference compound]
ΔTm [1]: 10 °C
Tm of LNA:DNA Duplexes, Perfect match [1]: 35 °C
Tm of LNA:DNA Duplexes, Single mismatch [1]: 25 °C

5′-TGCTGGTG-3′ [LNA 8-mer]
ΔTm [1]: 26 °C
Tm of LNA:DNA Duplexes, Perfect match [1]: 71 °C
Tm of LNA:DNA Duplexes, Single mismatch [1]: 45 °C

5′-d(GTGATATGC) [ON1]
Tm, Y = A [2]: 28 °C
Tm, Y = C [2]: 11 °C
Tm, Y = G [2]: 12 °C
Tm, Y = T [2]: 19 °C

COc1cc(NC(C)CCCN)c2ncccc2c1 (centres unmarked) [Primaquine, primaquine]
Log2 transformed fold of change, ABC_F57C12.4 [3]: −1.11
Log2 transformed fold of change, CYP_F14F7.2 [3]: −1.24
Log2 transformed fold of change, DC_W05G11.3 [3]: 1.16
Log2 transformed fold of change, ER_26S [3]: −1.09
Log2 transformed fold of change, PPGB_F13D12.6 [3]: 1.08
Log2 transformed fold of change, RPL_K11H12.2 [3]: 1.15

O=c1cc(-c2ccccc2)oc2ccc3ccccc3c12 [beta-naphthoflavone, β-naphthoflavone]
Log2 transformed fold of change, ABC_C34G6.4 [3]: 1.01
Log2 transformed fold of change, CYP_C03G6.15 [3]: 2.35
Log2 transformed fold of change, CYP_C06B3.3 [3]: 2.47
Log2 transformed fold of change, CYP_C49G7.8 [3]: 2.40
Log2 transformed fold of change, CYP_F14F7.2 [3]: −1.03
Log2 transformed fold of change, CYP_K07C6.5 [3]: 2.68
Log2 transformed fold of change, CYP_K09D9.2 [3]: 2.14
Log2 transformed fold of change, ER_26S [3]: −1.01
Log2 transformed fold of change, HSP_C47E8.5 [3]: 1.17
Log2 transformed fold of change, HSP_F26D10.3 [3]: 1.05
Log2 transformed fold of change, HSP_F43D9.4 [3]: 1.27
Log2 transformed fold of change, NAP_D2096.8 [3]: 1.14
Log2 transformed fold of change, PPGB_F13D12.6 [3]: 1.21
Log2 transformed fold of change, RAD_Y116A8C.133 [3]: 1.13
Log2 transformed fold of change, RPL_K11H12.2 [3]: 1.42
Log2 transformed fold of change, Ubi_F25B5.4 [3]: 1.37

ATtCcAtTcGaTtCcAtTcGaTc (as printed in the source, key not given here) [LNA-2]
FISH signals on chromosomes (human satellite-2 repeat): signals on chromosomes 1, 16, 9 and 15
FISH signals without a denaturation step (human satellite-2 repeat): giving the best signals

aTTCcattcgATTccattcGATc (ATTCCATTCGATTCCATTCGATC; sugars from the 5' end dlllddddddlllddddddllld, backbone and methylation of C not given here; 5' end labelled with Cy3 or biotin) [LNA Blocks]
FISH signals on chromosomes (human satellite-2 repeat): smaller signals on chromosome 1

aTtcCatTcgAtTccAttCgaTc (ATTCCATTCGATTCCATTCGATC; sugars from the 5' end dlddlddlddldlddlddlddld, backbone and methylation of C not given here; 5' end labelled with Cy3 or biotin) [LNA-3]
FISH signals on chromosomes (human satellite-2 repeat): bright signals on chromosomes 1, 16 and 9

aTtccatTcgaTtccAttcgaTc (ATTCCATTCGATTCCATTCGATC; sugars from the 5' end dldddddldddldddldddddld, backbone and methylation of C not given here; 5' end labelled with Cy3 or biotin) [Dispersed LNA]
FISH signals on chromosomes (human satellite-2 repeat): signals on chromosomes 1 and 16 only

attccattcgattccattcgatc (ATTCCATTCGATTCCATTCGATC; chemistry not given here) [DNA oligo, reference compound]
FISH signals on chromosomes (human satellite-2 repeat): no signals on any of the chromosomes
FISH signals without a denaturation step (human satellite-2 repeat): no signals were obtained

cAmCtgGAmCtctt (CACTGGACTCTT; chemistry not given here)
ΔTm between singly mismatched and perfect duplexes ([4]; Gluc53as-A): −10.9 °C
Tm with aagaggccagtg (singly mismatched) ([4]; Gluc53as-A, duplexes 2 μM): 50.6 °C
Tm with aagagtccagtg (perfect) ([4]; Gluc53as-A, duplexes 2 μM): 61.5 °C

caacactgcccagaggttcaatcGATGTgtgataggatcagtgttcaggg (CAACACTGCCCAGAGGTTCAATCGATGTGTGATAGGATCAGTGTTCAGGG; sugars from the 5' end d23 l5 d22, backbone not given here; further chemistry not fully specified) [gene78.m01INS4_50_block]
Observed ratio (log2) with merged LNA block capture probes [5]: −2.39

caacactgcccagaggttcaatcGATmCmCgatgatcctaatgaaggcgccc (CAACACTGCCCAGAGGTTCAATCGATCCGATGATCCTAATGAAGGCGCCC; sugars from the 5' end d23 l5 d22, [5mC] at 27, 28, backbone not given here; further chemistry not fully specified) [gene78.m01INS3_50_block]
Observed ratio (log2) with merged LNA block capture probes [5]: 2.93

gaaggcgaaggagactgctAATATcgataaatatgtgaaggaaatgcctg (as printed in the source, key not given here) [gene78.mINS403_50_block]
Observed ratio (log2) with merged LNA block capture probes [5]: −0.86

gene78.m0103: merged probe corresponding to the exon 01-exon 03 border (DNA CACAACACTGCCCAGAGGTTCAATCGATAAATATGTGAAGGAAATGCCTG; listed as DNA, chemistry not fully specified)
Observed ratio (log2) with merged LNA block capture probes [5]: −0.24

gtccagtatcgtccatcatAGTATcgataaatatgtgaaggaaatgcctg (as printed in the source, key not given here) [gene78.mINS303_50_block]
Observed ratio (log2) with merged LNA block capture probes [5]: 3.11

tGtggGATGttg (TGTGGGATGTTG; chemistry not given here)
ΔTm between singly mismatched and perfect duplexes ([4]; HNFas128A-2): −15.1 °C
Tm with caacaacccaca (singly mismatched) ([4]; HNFas128A-2, duplexes 2 μM): 45.9 °C
Tm with caacatcccaca (perfect) ([4]; HNFas128A-2, duplexes 2 μM): 61.0 °C
